Laboratory results as given in PubChem BioAssay (NCI).
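These data come from cells grown in 96-well plates and exposed to compound for 48 hours at five concentrations. TGI is the concentration that stops growth completely.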

How the values were obtained:
Assay in all cases: NCI anticancer screen, dose series, 48 h
[1] = test system: DU-145 prostate
[2] = test system: OVCAR-3 ovarian
[3] = test system: NCI-H226 lung
[4] = test system: CAKI-1 renal
[5] = test system: LOX IMVI melanoma
[6] = test system: UO-31 renal
[7] = test system: COLO 205 colon
[8] = test system: K-562 leukemia
[9] = test system: MDA-MB-231 breast
[10] = test system: A549 NSCLC
[11] = test system: HOP-92 NSCLC
[12] = test system: SNB-75 CNS
[13] = test system: CCRF-CEM leukemia
[14] = test system: TK-10 renal
[15] = test system: ACHN renal
[16] = test system: HS 578T breast
[17] = test system: KM12 colon
[18] = test system: SF-295 CNS
[19] = test system: SNB-19 CNS
[20] = test system: SW-620 colon
[21] = test system: HL-60(TB) leukemia
[22] = test system: RXF 393 renal
[23] = test system: HCT-116 colon
[24] = test system: HT29 colon
[25] = test system: MDA-MB-435
[26] = test system: SK-OV-3 ovarian
[27] = test system: SR leukemia
[28] = test system: RPMI-8226 leukemia
[29] = test system: MCF7 breast
[30] = test system: U251 CNS
[31] = test system: 786-0 renal
[32] = test system: HOP-62 NSCLC
[33] = test system: SN12C renal
[34] = test system: MALME-3M melanoma
[35] = test system: MDA-N
[36] = test system: SK-MEL-2 melanoma
[37] = test system: SK-MEL-5 melanoma
[38] = test system: T-47D breast
[39] = test system: A498 renal
[40] = test system: NCI-H522 lung
[41] = test system: PC-3 prostate
[42] = test system: UACC-257 melanoma
[43] = test system: SK-MEL-28 melanoma
[44] = test system: EKVX NSCLC
[45] = test system: IGROV1 ovarian
[46] = test system: SF-268 CNS
[47] = test system: OVCAR-5 ovarian
[48] = test system: MOLT-4 leukemia
[49] = test system: M14 melanoma
[50] = test system: OVCAR-4 ovarian
[51] = test system: OVCAR-8 ovarian
[52] = test system: NCI-H460 lung
[53] = test system: SF-539 CNS
[54] = test system: NCI/ADR-RES ovarian
[55] = test system: HCC-2998 colon
[56] = test system: HCT-15 colon
[57] = test system: NCI-H23 lung
[58] = test system: UACC-62 melanoma
[59] = test system: BT-549 breast

## c1ccc(C[N+]23C(CC[C@H]2c2ccccc2)CC[C@H]3c2ccccc2)cc1 (some centres not stated)
[1]
  TGI: > 100 µM
[2]
  TGI: 90 µM
[3]
  TGI: 87.8 µM
[4]
  TGI: > 100 µM
[5]
  TGI: > 100 µM
[6]
  TGI: > 100 µM
[7]
  TGI: 31.2 µM
[8]
  TGI: > 100 µM
[9]
  TGI: > 100 µM
[10]
  TGI: > 100 µM
[11]
  TGI: 52.3 µM
[12]
  TGI: 75 µM
[13]
  TGI: > 100 µM
[14]
  TGI: > 100 µM
[15]
  TGI: > 100 µM
[16]
  TGI: > 100 µM
[17]
  TGI: 78 µM
[18]
  TGI: > 100 µM
[19]
  TGI: > 100 µM
[20]
  TGI: > 100 µM
[21]
  TGI: 57.4 µM
[22]
  TGI: 57.2 µM
[23]
  TGI: > 100 µM
[24]
  TGI: > 100 µM
[25]
  TGI: 54.8 µM
[26]
  TGI: > 100 µM
[27]
  TGI: > 100 µM
[28]
  TGI: 26.4 µM
[29]
  TGI: > 100 µM
[30]
  TGI: > 100 µM
[31]
  TGI: > 100 µM
[32]
  TGI: > 100 µM
[33]
  TGI: > 100 µM
[34]
  TGI: > 100 µM
[35]
  TGI: 98.9 µM
[36]
  TGI: > 100 µM
[37]
  TGI: 19.1 µM
[38]
  TGI: > 100 µM
[39]
  TGI: > 100 µM
[40]
  TGI: > 100 µM
[41]
  TGI: > 100 µM
[42]
  TGI: 90.3 µM
[43]
  TGI: > 100 µM
[44]
  TGI: > 100 µM
[45]
  TGI: > 100 µM
[46]
  TGI: > 100 µM
[47]
  TGI: > 100 µM
[48]
  TGI: > 100 µM
[49]
  TGI: 93 µM
[50]
  TGI: > 100 µM
[51]
  TGI: > 100 µM

## O=[N+]([O-])c1ccc2nc(/C=C(\O)c3ccccc3)c(NC34CC5CC(CC(C5)C3)C4)nc2c1
[1]
  TGI: > 10 µM
[2]
  TGI: > 10 µM
[3]
  TGI: > 10 µM
[4]
  TGI: > 10 µM
[5]
  TGI: > 10 µM
[6]
  TGI: > 10 µM
[52]
  TGI: > 10 µM
[7]
  TGI: > 10 µM
[9]
  TGI: > 10 µM
[12]
  TGI: > 10 µM
[14]
  TGI: > 10 µM
[15]
  TGI: > 10 µM
[16]
  TGI: > 10 µM
[17]
  TGI: > 10 µM
[53]
  TGI: > 10 µM
[18]
  TGI: > 10 µM
[20]
  TGI: > 10 µM
[22]
  TGI: > 10 µM
[24]
  TGI: > 10 µM
[25]
  TGI: > 10 µM
[26]
  TGI: > 10 µM
[29]
  TGI: > 10 µM
[30]
  TGI: > 10 µM
[31]
  TGI: > 10 µM
[32]
  TGI: > 10 µM
[33]
  TGI: > 10 µM
[34]
  TGI: > 10 µM
[35]
  TGI: > 10 µM
[36]
  TGI: > 10 µM
[37]
  TGI: > 10 µM
[38]
  TGI: > 10 µM
[54]
  TGI: > 10 µM
[39]
  TGI: > 10 µM
[40]
  TGI: > 10 µM
[41]
  TGI: > 10 µM
[42]
  TGI: > 10 µM
[55]
  TGI: > 10 µM
[43]
  TGI: > 10 µM
[44]
  TGI: > 10 µM
[45]
  TGI: > 10 µM
[46]
  TGI: > 10 µM
[56]
  TGI: > 10 µM
[47]
  TGI: > 10 µM
[49]
  TGI: > 10 µM
[50]
  TGI: > 10 µM
[51]
  TGI: > 10 µM
[57]
  TGI: > 10 µM

## CN1CCN(c2ccc3nc(-c4ccc5nc(CCCc6ccc(N(CCCl)CCCl)cc6)[nH]c5c4)[nH]c3c2)CC1
[1]
  TGI: > 100 µM
[3]
  TGI: > 100 µM
[4]
  TGI: > 100 µM
[5]
  TGI: > 100 µM
[6]
  TGI: > 100 µM
[52]
  TGI: > 100 µM
[7]
  TGI: > 100 µM
[8]
  TGI: > 100 µM
[9]
  TGI: > 100 µM
[10]
  TGI: > 100 µM
[11]
  TGI: > 100 µM
[12]
  TGI: > 100 µM
[13]
  TGI: > 100 µM
[14]
  TGI: > 100 µM
[15]
  TGI: > 100 µM
[16]
  TGI: > 100 µM
[17]
  TGI: > 100 µM
[53]
  TGI: > 100 µM
[18]
  TGI: > 100 µM
[19]
  TGI: > 100 µM
[20]
  TGI: > 100 µM
[21]
  TGI: > 100 µM
[22]
  TGI: > 100 µM
[23]
  TGI: > 100 µM
[24]
  TGI: > 100 µM
[25]
  TGI: > 100 µM
[26]
  TGI: > 100 µM
[27]
  TGI: > 100 µM
[28]
  TGI: > 100 µM
[29]
  TGI: > 100 µM
[30]
  TGI: > 100 µM
[31]
  TGI: > 100 µM
[32]
  TGI: > 100 µM
[58]
  TGI: > 100 µM
[33]
  TGI: > 100 µM
[34]
  TGI: > 100 µM
[35]
  TGI: > 100 µM
[36]
  TGI: > 100 µM
[37]
  TGI: > 100 µM
[38]
  TGI: > 100 µM
[54]
  TGI: > 100 µM
[39]
  TGI: > 100 µM
[40]
  TGI: > 100 µM
[41]
  TGI: > 100 µM
[42]
  TGI: > 100 µM
[55]
  TGI: > 100 µM
[43]
  TGI: > 100 µM
[45]
  TGI: > 100 µM
[46]
  TGI: > 100 µM
[56]
  TGI: > 100 µM
[47]
  TGI: > 100 µM
[48]
  TGI: > 100 µM
[49]
  TGI: > 100 µM
[50]
  TGI: > 100 µM
[51]
  TGI: > 100 µM
[57]
  TGI: > 100 µM

## O=C(Cn1c2c(c3ccccc31)CCCC2)N1CCOCC1
[2]
  TGI: > 100 µM
[4]
  TGI: > 100 µM
[5]
  TGI: > 100 µM
[6]
  TGI: > 100 µM
[52]
  TGI: > 100 µM
[7]
  TGI: > 100 µM
[8]
  TGI: > 100 µM
[59]
  TGI: > 100 µM
[10]
  TGI: > 100 µM
[11]
  TGI: > 100 µM
[13]
  TGI: > 100 µM
[14]
  TGI: > 100 µM
[15]
  TGI: > 100 µM
[16]
  TGI: > 100 µM
[53]
  TGI: > 100 µM
[18]
  TGI: > 100 µM
[19]
  TGI: > 100 µM
[20]
  TGI: > 100 µM
[21]
  TGI: > 100 µM
[23]
  TGI: > 100 µM
[24]
  TGI: > 100 µM
[25]
  TGI: > 100 µM
[26]
  TGI: > 100 µM
[28]
  TGI: > 100 µM
[29]
  TGI: > 100 µM
[31]
  TGI: > 100 µM
[32]
  TGI: > 100 µM
[58]
  TGI: > 100 µM
[33]
  TGI: > 100 µM
[34]
  TGI: > 100 µM
[35]
  TGI: > 100 µM
[36]
  TGI: > 100 µM
[37]
  TGI: > 100 µM
[54]
  TGI: > 100 µM
[39]
  TGI: > 100 µM
[41]
  TGI: > 100 µM
[42]
  TGI: > 100 µM
[55]
  TGI: > 100 µM
[44]
  TGI: > 100 µM
[45]
  TGI: > 100 µM
[46]
  TGI: > 100 µM
[56]
  TGI: > 100 µM
[47]
  TGI: > 100 µM
[48]
  TGI: > 100 µM
[49]
  TGI: > 100 µM
[50]
  TGI: > 100 µM
[51]
  TGI: > 100 µM
[57]
  TGI: > 100 µM
